Source: patent US11053230B2, “3-hydroxy-imidazolidin-4-one compounds as inhibitors of indoleamine 2,3-dioxygenase” (Netherlands Translational Research Center B.V., priority 2017, dated 2021)
Several values for one entry are separate records, joined by “and”; a condition that tells them apart may be missing. Equal values may be shown once.

molecular target: T1, IDO1 (Homo sapiens, UniProt P14902); assay: Biochemical IDO1 assay (NFK GreenScreen); details: NFK GreenScreen; 25 nM IDO1, 100 μM L-tryptophan; read-out: IC50, inhibitory potency on IDO1
T1 construct: Recombinant full-length IDO1 (Seegers, N., et al.) and all other assay components were diluted in IDO1 reaction buffer; made in house
Description: Inhibition of IDO1 activity can be measured by determining the enzymatic conversion of L-tryptophan into N-formylkynurenine (NFK) in a reaction mixture containing IDO1 and test compound. The formation of NFK can be detected directly by, for instance, high-performance liquid chromatography (HPLC) methods, or by intrinsic fluorescence.
Compounds were serially diluted in dimethylsulfoxide (DMSO) and finally in IDO1 reaction buffer, consisting of 50 mM NaH2PO4, pH7.0, supplemented with 0.05% Tween-20 (cat. No. P7949; Sigma Aldrich) and 1% glycerol. Recombinant full-length IDO1 (Seegers, N., et al.) and all other assay components were diluted in IDO1 reaction buffer. […] Subsequently, 10 μl of 0.4 mM of the substrate L-tryptophan was added, i.e., the final concentration of L-tryptophan was 100 μM. The DMSO concentration in the assay was 0.3%. […] Incubation was continued for 60 min at room temperature. Then, 10 μl of NFK Green™ (NTRC, Oss, The Netherlands) was added, the plate was sealed, and the reaction was developed for 3 hours at 37° C. To determine the production of N-formyl kynurenine (NFK), the seal was removed and fluorescence was read on an EnVision multimode reader (Perkin Elmer, Waltham, Mass., USA). IC50 were calculated using XLfit™ software (ID Business Solutions, Ltd., Surrey, U.K.).

T1 sequence (P14902 whole entry): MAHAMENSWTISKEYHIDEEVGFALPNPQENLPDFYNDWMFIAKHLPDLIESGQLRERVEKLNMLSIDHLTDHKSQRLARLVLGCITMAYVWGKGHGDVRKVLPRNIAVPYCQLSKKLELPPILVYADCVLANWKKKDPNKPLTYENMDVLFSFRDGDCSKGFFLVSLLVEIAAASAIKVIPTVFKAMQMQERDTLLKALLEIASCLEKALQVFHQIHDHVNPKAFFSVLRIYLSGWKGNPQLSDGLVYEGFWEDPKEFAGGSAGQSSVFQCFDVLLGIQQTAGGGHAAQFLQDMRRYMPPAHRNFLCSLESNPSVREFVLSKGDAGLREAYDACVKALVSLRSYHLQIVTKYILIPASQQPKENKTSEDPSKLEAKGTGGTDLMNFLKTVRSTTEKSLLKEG

| IC50 | SMILES |
| --- | --- |
| ≤ 5000 nM and 1000 to 5000 nM | CS(=O)(=O)c1ccc(-c2ccc(C(=O)N3CC(=O)N(O)C3c3cc(Br)cs3)cc2)cc1 (stereo not drawn) [Example 71, 2-(4-Bromo-2-thienyl)-3-hydroxy-1-[4-(4-methylsulfonylphenyl)benzoyl]imidazolidin-4-one] |
| ≤ 1000 nM | O=C1CN(C(=O)c2ccncc2F)C(c2cc(Br)cs2)N1O (stereo not drawn) [Example 73, 2-(4-Bromo-2-thienyl)-1-(3-fluoropyridine-4-carbonyl)-3-hydroxy-imidazolidin-4-one] |
| ≤ 1000 nM | O=C1CN(C(=O)c2c(F)ccc(Br)c2F)C(c2cc(Br)cs2)N1O (stereo not drawn) [Example 74, 1-(3-Bromo-2,6-difluoro-benzoyl)-2-(4-bromo-2-thienyl)-3-hydroxy-imidazolidin-4-one] |
| ≤ 1000 nM | COc1ccc(F)c(C(=O)N2CC(=O)N(O)C2c2cc(Br)cs2)c1F (stereo not drawn) [Example 75, 2-(4-Bromo-2-thienyl)-1-(2,6-difluoro-3-methoxy-benzoyl)-3-hydroxy-imidazolidin-4-one] |
| ≤ 1000 nM | O=C1CN(C(=O)c2c(F)ccc(C(F)(F)F)c2F)C(c2cc(Br)cs2)N1O (stereo not drawn) [Example 76, 2-(4-Bromo-2-thienyl)-1-[2,6-difluoro-3-(trifluoromethyl)benzoyl]-3-hydroxy-imidazolidin-4-one] |
| ≤ 1000 nM | Cc1ccc(F)c(C(=O)N2CC(=O)N(O)C2c2cc(Br)cs2)c1F (stereo not drawn) [Example 77, 2-(4-Bromo-2-thienyl)-1-(2,6-difluoro-3-methyl-benzoyl)-3-hydroxy-imidazolidin-4-one] |
| ≤ 1000 nM | O=C1CN(C(=O)c2c(F)cc(C#CC3CCCCC3)cc2F)C(c2cc(Br)cs2)N1O (stereo not drawn) [Example 78, 2-(4-Bromo-2-thienyl)-1-[4-(2-cyclohexylethynyl)-2,6-difluoro-benzoyl]-3-hydroxy-imidazolidin-4-one] |
| ≤ 1000 nM | NCC#Cc1cc(F)c(C(=O)N2CC(=O)N(O)C2c2cc(Br)cs2)c(F)c1 (stereo not drawn) [Example 79, 1-[4-(3-Aminoprop-1-ynyl)-2,6-difluoro-benzoyl]-2-(4-bromo-2-thienyl)-3-hydroxy-imidazolidin-4-one] |
| ≤ 1000 nM | NS(=O)(=O)NCC#Cc1cc(F)c(C(=O)N2CC(=O)N(O)C2c2cc(Br)cs2)c(F)c1 (stereo not drawn) [Example 80, 2-(4-Bromo-2-thienyl)-1-[2,6-difluoro-4-[3-(sulfamoylamino)prop-1-ynyl]benzoyl]-3-hydroxy-4-oxo-imidazolidine] |
| ≤ 1000 nM | CC(C)(N)C#Cc1cc(F)c(C(=O)N2CC(=O)N(O)C2c2cc(Br)cs2)c(F)c1 (stereo not drawn) [Example 81, 1-[4-(3-Amino-3-methyl-but-1-ynyl)-2,6-difluoro-benzoyl]-2-(4-bromo-2-thienyl)-3-hydroxy-imidazolidin-4-one] |
| ≤ 1000 nM | O=C1CN(C(=O)c2c(F)cc(C3CC3)cc2F)C(c2cc(Br)cs2)N1O (stereo not drawn) [Example 82, 2-(4-Bromo-2-thienyl)-1-(4-cyclopropyl-2,6-difluoro-benzoyl)-3-hydroxy-imidazolidin-4-one] |
| ≤ 1000 nM | C=Cc1cc(F)c(C(=O)N2CC(=O)N(O)C2c2cc(Br)cs2)c(F)c1 (stereo not drawn) [Example 83, 2-(4-Bromo-2-thienyl)-1-(2,6-difluoro-4-vinyl-benzoyl)-3-hydroxy-imidazolidin-4-one] |
| ≤ 1000 nM | Cc1cc(F)c(C(=O)N2CC(=O)N(O)C2c2cc(Br)cs2)c(F)c1 (stereo not drawn) [Example 84, 2-(4-Bromo-2-thienyl)-1-(2,6-difluoro-4-methyl-benzoyl)-3-hydroxy-imidazolidin-4-one] |
| ≤ 1000 nM | O=C1CN(C(=O)c2c(F)cc(-c3ccccc3)cc2F)C(c2cc(Br)cs2)N1O (stereo not drawn) [Example 85, 2-(4-Bromo-2-thienyl)-1-(2,6-difluoro-4-phenyl-benzoyl)-3-hydroxy-imidazolidin-4-one] |
| ≤ 1000 nM | Cn1cc(-c2cc(F)c(C(=O)N3CC(=O)N(O)C3c3cc(Br)cs3)c(F)c2)cn1 (stereo not drawn) [Example 86, 2-(4-Bromo-2-thienyl)-1-[2,6-difluoro-4-(1-methylpyrazol-4-yl)benzoyl]-3-hydroxy-imidazolidin-4-one] |
| ≤ 1000 nM | O=C1CN(C(=O)c2c(F)cc(-c3cccs3)cc2F)C(c2cc(Br)cs2)N1O (stereo not drawn) [Example 87, 2-(4-Bromo-2-thienyl)-1-[2,6-difluoro-4-(2-thienyl)benzoyl]-3-hydroxy-imidazolidin-4-one] |
| ≤ 1000 nM | O=C1CN(C(=O)c2c(F)cc(-c3cccnc3)cc2F)C(c2cc(Br)cs2)N1O (stereo not drawn) [Example 88, 2-(4-Bromo-2-thienyl)-1-[2,6-difluoro-4-(3-pyridyl)benzoyl]-3-hydroxy-imidazolidin-4-one] |
| ≤ 1000 nM | NC1(C#Cc2cc(F)c(C(=O)N3CC(=O)N(O)C3c3cc(Br)cs3)c(F)c2)CC1 (stereo not drawn) [Example 89, 1-[4-[2-(1-Aminocyclopropyl)ethynyl]-2,6-difluoro-benzoyl]-2-(4-bromo-2-thienyl)-3-hydroxy-imidazolidin-4-one] |
| ≤ 1000 nM | NS(=O)(=O)NC1(C#Cc2cc(F)c(C(=O)N3CC(=O)N(O)C3c3cc(Br)cs3)c(F)c2)CC1 (stereo not drawn) [Example 90, 2-(4-Bromo-2-thienyl)-1-[2,6-difluoro-4-[2-[1-(sulfamoylamino)cyclopropyl]ethynyl]benzoyl]-3-hydroxy-4-oxo-imidazolidine] |
| ≤ 1000 nM | CS(=O)(=O)NCc1cc(F)c(C(=O)N2CC(=O)N(O)C2c2cc(Br)cs2)c(F)c1 (stereo not drawn) [Example 91, N-[[4-[2-(4-Bromo-2-thienyl)-3-hydroxy-4-oxo-imidazolidine-1-carbonyl]-3,5-difluoro-phenyl]methyl]methanesulfonamide] |
| ≤ 5000 nM and 1000 to 5000 nM | O=C1CN(C(=O)c2c(F)cc(CCC3CCCCC3)cc2F)C(c2cc(Br)cs2)N1O (stereo not drawn) [Example 92, 2-(4-Bromo-2-thienyl)-1-[4-(2-cyclohexylethyl)-2,6-difluoro-benzoyl]-3-hydroxy-imidazolidin-4-one] |
| ≤ 1000 nM | NS(=O)(=O)NCCCc1cc(F)c(C(=O)N2CC(=O)N(O)C2c2cc(Br)cs2)c(F)c1 (stereo not drawn) [Example 93, 2-(4-Bromo-2-thienyl)-1-[2,6-difluoro-4-[3-(sulfamoylamino)propyl]benzoyl]-3-hydroxy-4-oxo-imidazolidine] |
| ≤ 1000 nM | CC(C)C=Cc1cc(F)c(C(=O)N2CC(=O)N(O)C2c2cc(Br)cs2)c(F)c1 (stereo not drawn) [Example 94, 2-(4-Bromo-2-thienyl)-1-[2,6-difluoro-4-[3-methylbut-1-enyl]benzoyl]-3-hydroxy-imidazolidin-4-one] |
| ≤ 5000 nM and 1000 to 5000 nM | CC(C)CCc1cc(F)c(C(=O)N2CC(=O)N(O)C2c2cc(Br)cs2)c(F)c1 (stereo not drawn) [Example 95, 2-(4-Bromo-2-thienyl)-1-(2,6-difluoro-4-isopentyl-benzoyl)-3-hydroxy-imidazolidin-4-one] |
| ≤ 1000 nM | O=C1CN(C(=O)c2c(F)cc(-c3cn[nH]c3)cc2F)C(c2cc(Br)cs2)N1O (stereo not drawn) [Example 96, 2-(4-bromo-2-thienyl)-1-[2,6-difluoro-4-(1H-pyrazol-4-yl)benzoyl]-3-hydroxy-imidazolidin-4-one] |
| ≤ 5000 nM and 1000 to 5000 nM | CN(C)c1cc(F)c(C(=O)N2CC(=O)N(O)C2c2cc(Br)cs2)c(F)c1 (stereo not drawn) [Example 97, 2-(4-Bromo-2-thienyl)-1-[4-(dimethylamino)-2,6-difluoro-benzoyl]-3-hydroxy-imidazolidin-4-one] |
| ≤ 1000 nM | O=C1CN(C(=O)c2ccccc2F)C(c2csc(Br)c2)N1O (stereo not drawn) [Example 98, 2-(5-Bromo-3-thienyl)-1-(2-fluorobenzoyl)-3-hydroxy-imidazolidin-4-one] |
